Experiments:
[1] = system: HCV replicon in human hepatoma Huh-7 cell line; assay: Anti-HCV replicon assay, EC50 (luciferase luminescence); format: cell-based; settings: Hepatitis C virus, Huh-7, 72 h
Outline: (§1)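 Cytotoxicity (CC50) read by CellTiter-Glo luminescence after 10 min, and antiviral EC50 by luciferase signal after 30 min lysis with substrate, both at room temperature. Preceding step: 3-day exposure of 6000 Huh-7 HCV replicon cells per well to compound dilution series at 37° C, 5% CO2, in 0.5% DMSO.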

[2] = CC50 assay (CellTiter-Glo) in Huh-7 HCV replicon cells; format: cell-based; settings: human
Outline: as §1

Compound | EC50 [1] | CC50 at 3 days ([2]; Table 2, 3 days incubation) | CC50 at 3 days ([2]; Table 1, 3 days incubation)
C[C@@H](Cn1cncn1)Nc1nc(NCC(F)(F)F)c2nc(-c3cccc(S(C)(=O)=O)c3)ccc2n1 [Example 169, N^2-((S)-1-(1H-1,2,4-triazol-1-yl)propan-2-yl)-6-(3-(methylsulfonyl)phenyl)-N^4-(2,2,2-trifluoroethyl)pyrido [3,2-d]pyrimidine-2,4-diamine] | 0.25 to 2 µM | > 10 µM | 
CCOc1ccc(-c2ccc3nc(N[C@H](C)c4ccc(-n5cncn5)cc4)nc(NCC(F)(F)F)c3n2)cc1S(N)(=O)=O [Example 265, 5-(2-((R)-1-(4-(1H-1,2,4-triazol-1-yl)phenyl)ethylamino)-4-(2,2,2-trifluoroethylamino)pyrido [3,2-d]pyrimidin-6-yl)-2-ethoxybenzenesulfonamide] | < 0.1 µM | 1 to 10 µM | 
FC(F)(F)CNc1nc(NCc2ccc(-n3cncn3)cc2)nc2ccc(-c3ccc(OC4CCC4)nc3)nc12 [Example 250, N^2-(4-(1H-1,2,4-triazol-1-yl)benzyl)-6-(6-cyclobutoxy-pyridin-3-yl)-N^4-(2,2,2-trifluoroethyl)pyrido[3,2-d] pyrimidine-2,4-diamine] | < 0.1 µM | 1 to 10 µM | 
CS(=O)(=O)c1cccc(-c2ccc3nc(NCc4ccc(-n5cncn5)cc4)nc(OC4CC4)c3n2)c1 [Example 188, N-(4-(1H-1,2,4-triazol-1-yl)benzyl)-4-cyclopropoxy-6-(3-(methylsulfonyl)phenyl) pyrido[3,2-d]pyrimidin-2-amine] | < 0.1 µM | > 10 µM | 
C[C@H](Nc1nc(NCc2ccc(-n3cncn3)cc2)nc2ccc(-c3cccc(S(C)(=O)=O)c3)nc12)C(F)(F)F [Example 187, N^2-(4-(1H-1,2,4-triazol-1-yl)benzyl)-6-(3-(methylsulfonyl)phenyl)-N^4-((S)-1,1,1-trifluoropropan-2-yl)pyrido [3,2-d]pyrimidine-2,4-diamine] | < 0.1 µM | > 10 µM | 
COc1ccc(-c2ccc3nc(NCc4ccc(-n5cccn5)cc4)nc(NCC(F)(F)F)c3n2)cc1S(N)(=O)=O [Example 236, 5-(2-(4-(1H-pyrazol-1-yl)benzylamino)-4-(2,2,2-trifluoroethylamino)pyrido [3,2-d]pyrimidin-6-yl)-2-methoxybenzenesulfonamide] | < 0.1 µM | 1 to 10 µM | 
Cc1cc(S(N)(=O)=O)ccc1[C@H](C)Nc1nc(NC2(C(F)(F)F)CC2)c2nc(-c3ccc(F)cc3)ccc2n1 [Example 108, (S)-4-(1-(6-(4-fluorophenyl)-4-(1-(trifluoromethyl)cyclopropyl-amino)pyrido[3,2-d]pyrimidin-2-ylamino)ethyl)-3-methylbenzene-sulfonamide] | 0.25 to 2 µM | > 10 µM | 
CC(C)Oc1nc(NCc2ccc(-n3cncn3)cc2)nc2ccc(-c3ccc(OC(F)F)c(S(C)(=O)=O)c3)nc12 [Example 199, N-(4-(1H-1,2,4-triazol-1-yl)benzyl)-6-(4-(difluoromethoxy)-3-(methylsulfonyl)phenyl)-4-isopropoxypyrido[3,2-d] pyrimidin-2-amine] | < 0.1 µM | > 10 µM | 
Fc1ccc(-c2ccc3nc(NCc4cccc(-n5cccn5)c4)nc(NCC(F)(F)F)c3n2)cc1 [Example 2, 6-(4-Fluoro-phenyl)-N2-(3-pyrazol-1-yl-benzyl)-N4-(2,2,2-trifluoro-ethyl)-pyrido[3,2-d]pyrimidine-2,4-diamine] | < 0.1 µM |  | > 25 µM
CCOc1ccc(-c2ccc3nc(N[C@H]4CCN(C(=O)[C@H](NC(=O)OC)C(C)C)C4)nc(NCC(F)(F)F)c3n2)cc1S(N)(=O)=O [Example 266, methyl (R)-1-((S)-3-(6-(4-ethoxy-3-(aminosulfonyl)phenyl)-4-(2,2,2-trifluoroethylamino)pyrido[3,2-d]pyrimidin-2-ylamino)pyrrolidin-1-yl)-3-methyl-1-oxobutan-2-ylcarbamate] | < 0.1 µM | 1 to 10 µM | 
FC(F)Oc1ccc(-c2ccc3nc(NCc4ccc(-n5cncn5)cc4)nc(NCC(F)(F)F)c3n2)cn1 [Example 245, N^2-(4-(1H-1,2,4-triazol-1-yl)benzyl)-6-(6-(difluoro-methoxy)pyridin-3-yl)-N^4-(2,2,2-trifluoroethyl)pyrido [3,2-d]pyrimidine-2,4-diamine] | < 0.1 µM | > 10 µM | 
COc1ccc(-c2ccc3nc(NCCS(N)(=O)=O)nc(NC4(C(F)(F)F)CC4)c3n2)cc1S(C)(=O)=O [Example 93, 2-(6-(4-methoxy-3-(methylsulfonyl)phenyl)-4-(1-(trifluoromethyl)cyclopropyl-amino)pyrido[3,2-d]pyrimidin-2-ylamino)ethanesulfonamide] | < 0.1 µM | 1 to 10 µM | 
Nc1ccc(-c2ccc3nc(NCc4cccc(-n5cncn5)c4)nc(NC4(C(F)(F)F)CC4)c3n2)cn1 [Example 73, N^2-(3-(1H-1,2,4-triazol-1-yl)benzyl)-6-(6-aminopyridin-3-yl)-N^4-(1-(trifluoromethyl)cyclopropyl)pyrido[3,2-d] pyrimidine-2,4-diamine] | < 0.1 µM | 1 to 10 µM | 
C=Cc1ccc2nc(NCc3cc(Cl)cc(S(N)(=O)=O)c3)nc(OC3(C)CC3)c2n1 [Example 303, 3-chloro-5-((4-(1-methylcyclo-propoxy)-6-vinylpyrido[3,2-d]pyrimidin-2-ylamino)methyl) benzenesulfonamide] | 0.1 to 0.25 µM | > 10 µM | 
C[C@@H](Nc1nc(OC2CC2)c2nc(C#CC3CC3)ccc2n1)c1ccc(S(N)(=O)=O)cc1 [Example 32, (R)-4-(1-(4-cyclopropoxy-6-(2-cyclopropylethynyl)pyrido[3,2-d]pyrimidin-2-ylamino)ethyl)benzenesulfonamide] | < 0.1 µM | > 10 µM | 
NS(=O)(=O)c1ccc(Cl)c(CNc2nc(NC3(C(F)(F)F)CC3)c3nc(-c4ccc(F)cc4)ccc3n2)c1 [Example 41, 4-chloro-3-((6-(4-fluorophenyl)-4-(1-(trifluoromethyl)cyclopropyl-amino)pyrido[3,2-d]pyrimidin-2-ylamino)methyl)benzene-sulfonamide] | 0.1 to 0.25 µM | 1 to 10 µM | 
COc1ccc(-c2ccc3nc(NC(C)c4cc(F)cc(F)c4)nc(NCC(F)(F)F)c3n2)cc1S(N)(=O)=O (stereo not shown) [Example 235, 5-(2-(1-(3,5-difluorophenyl)ethylamino)-4-(2,2,2-trifluoroethylamino)pyrido [3,2-d]pyrimidin-6-yl)-2-methoxybenzenesulfonamide] | 0.1 to 0.25 µM | 1 to 10 µM | 
C#Cc1ccc2nc(NCc3ccc(S(N)(=O)=O)cc3)nc(OC3CC3)c2n1 [Example 300, 4-((4-cyclopropoxy-6-ethynylpyrido[3,2-d]pyrimidin-2-ylamino)methyl) benzenesulfonamide] | 0.25 to 2 µM | 1 to 10 µM | 
Cc1cc(S(N)(=O)=O)c(C)cc1CNc1nc(NC2(C(F)(F)F)CC2)c2nc(-c3ccc(F)cc3)ccc2n1 [Example 83, 4-((6-(4-fluorophenyl)-4-(1-(trifluoromethyl)cyclopropylamino)pyrido[3,2-d]pyrimidin-2-ylamino)methyl)-2.5-dimethylbenzenesulfonamide] | 0.1 to 0.25 µM | > 10 µM | 
CC(Nc1nc(NCC(F)(F)F)c2nc(-c3cccc(S(C)(=O)=O)c3)ccc2n1)c1ccc(-n2cncn2)cc1 (stereo not shown) [Example 19, 6-(3-Methanesulfonyl-phenyl)-N2-[1-(4-[1,2,4]triazol-1-yl-phenyl)-ethyl]-N4-(2,2,2-trifluoro-ethyl)-pyrido[3,2-d]pyrimidine-2,4-diamine] | < 0.1 µM |  | 10 to 25 µM
CCOc1nc(N[C@H](C)c2ccc(S(N)(=O)=O)cc2)nc2ccc(C#CC3CC3)nc12 [Example 316, (R)-4-(1-(6-(2-cyclopropyl-ethynyl)-4-ethoxypyrido [3,2-d]pyrimidin-2-ylamino)ethyl)benzenesulfonamide] | 0.1 to 0.25 µM | > 10 µM | 
CS(=O)(=O)c1cc(-c2ccc3nc(NCc4cccnc4)nc(NCC(F)(F)F)c3n2)ccc1OC(F)F [Example 178, 6-(4-(difluoromethoxy)-3-(methylsulfonyl)phenyl)-N^2-(pyridin-3-ylmethyl)-N^4-(2,2,2-trifluoroethyl)pyrido [3,2-d]pyrimidine-2,4-diamine] | < 0.1 µM | 1 to 10 µM | 
CCOc1ccc(-c2ccc3nc(NCc4cccc(S(C)(=O)=O)c4)nc(NCC(F)(F)F)c3n2)cn1 [Example 230, N^2-(3-(methylsulfonyl)benzyl)-6-(6-ethoxypyridin-3-yl)-N^4-(2,2,2-trifluoroethyl)pyrido [3,2-d]pyrimidine-2,4-diamine] | < 0.1 µM | > 10 µM | 
COc1ccc(-c2ccc3nc(NCc4cccc(S(C)(=O)=O)c4)nc(NC4(C(F)(F)F)CC4)c3n2)cc1S(C)(=O)=O [Example 35, N^2-(3-(methylsulfonyl)benzyl)-6-(4-methoxy-3-(methylsulfonyl)phenyl)-N^4-(1-(trifluoromethyl)cyclopropyl) pyrido[3,2-d]pyrimidine-2,4-diamine] | < 0.1 µM | 1 to 10 µM | 
COc1ccc(-c2ccc3nc(NCc4ccc(S(N)(=O)=O)cc4)nc(NC4(C(F)(F)F)CC4)c3n2)cc1C(F)(F)F [Example 75, 4-((6-(4-methoxy-3-(trifluoromethyl)phenyl)-4-(1-(trifluoromethyl)cyclopropyl-amino)pyrido[3,2-d]pyrimidin-2-ylamino)methyl)benzene-sulfonamide] | 0.25 to 2 µM | > 10 µM | 
C[C@@H](Nc1nc(NCC(F)(F)F)c2nc(-c3cccc(S(C)(=O)=O)c3)ccc2n1)c1ccc(S(N)(=O)=O)cc1 [Example 17, (R)-4-{1-[6-(3-Methanesulfonyl-phenyl)-4-(2,2,2-trifluoro-ethylamino)-pyrido[3,2-d]pyrimidin-2-ylamino]-ethyl}-benzenesulfonamide] | < 0.1 µM |  | 10 to 25 µM
